Reference: patent US7879848B2, “Dipeptidyl Peptidase-IV inhibiting compounds, method of preparing the same, and pharmaceutical compositions containing the same as an active agent” (LG Life Sciences, Ltd., priority 2005, dated 2011)

Molecular target: T1, Dipeptidyl Peptidase-IV (DPP-IV) (Homo sapiens, UniProt P27487)
T1 construct: made in house
Assay: Measurement of DPP-IV Activity-Inhibiting Ability (fluorescent substrate Ac-Gly-Pro-AFC)
Format: biochemical
Details: 25° C., 50 mmol HEPES (pH 7.4), DP-IV 7.1 nM, enzyme reaction for 1 hour
Summary of the method: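 Baculovirus-expressed, nickel-purified enzyme (7.1 nM) was reacted with 100 µM Ac-Gly-Pro-AFC in 50 mmol HEPES pH 7.4 at 25 °C across a range of inhibitor concentrations. Product fluorescence was read at excitation 400 nm and emission 505 nm.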

T1 sequence (P27487 whole entry): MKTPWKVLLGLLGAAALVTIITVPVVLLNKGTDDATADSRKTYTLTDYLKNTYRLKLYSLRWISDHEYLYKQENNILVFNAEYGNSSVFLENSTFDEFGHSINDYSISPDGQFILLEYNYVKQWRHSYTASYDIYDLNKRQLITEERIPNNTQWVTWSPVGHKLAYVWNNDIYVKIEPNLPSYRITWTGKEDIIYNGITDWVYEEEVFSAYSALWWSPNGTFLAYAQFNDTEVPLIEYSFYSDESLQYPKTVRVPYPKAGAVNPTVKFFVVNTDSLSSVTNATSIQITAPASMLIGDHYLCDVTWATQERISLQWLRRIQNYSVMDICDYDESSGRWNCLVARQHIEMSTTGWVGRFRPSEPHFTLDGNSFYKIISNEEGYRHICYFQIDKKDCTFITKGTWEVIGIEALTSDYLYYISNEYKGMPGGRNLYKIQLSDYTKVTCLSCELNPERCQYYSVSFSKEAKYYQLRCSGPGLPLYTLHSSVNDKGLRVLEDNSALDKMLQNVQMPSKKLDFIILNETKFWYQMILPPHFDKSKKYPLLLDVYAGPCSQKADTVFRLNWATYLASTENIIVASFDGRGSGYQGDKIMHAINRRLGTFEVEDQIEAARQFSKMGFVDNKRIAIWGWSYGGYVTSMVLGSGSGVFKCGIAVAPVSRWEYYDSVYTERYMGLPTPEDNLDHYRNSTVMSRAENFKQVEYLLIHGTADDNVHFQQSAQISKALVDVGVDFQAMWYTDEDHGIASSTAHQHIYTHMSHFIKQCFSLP

SMILES | IC50 [nM]
N[C@@H](CC(=O)N1CCc2c(nc(C(F)(F)F)nc2C(F)(F)F)C1)CN1CC(C(F)(F)F)CCC1=O (stereo partly drawn) [Ex. 107, 1-{(2S)-2-amino-4-[2,4-bis(trifluoromethyl)-5,8-dihydropyrido[3,4-d]pyrimidin-7(6H)-yl]-4-oxobutyl}-5-(trifluoromethyl)piperidin-2-one] | 636
N[C@@H](CC(=O)N1CCc2c(nc(C(F)(F)F)nc2C(F)(F)F)C1)CN1CC(C(F)(F)F)CC1=O (stereo partly drawn) [Ex. 108, 1-{(2S)-2-amino-4-[2,4-bis(trifluoromethyl)-5,8-dihydropyrido[3,4-d]pyrimidin-7(6H)-yl]-4-oxobutyl}-4-(trifluoromethyl)pyrrolidin-2-one] | 54
N[C@@H](CC(=O)N1CCc2c(nc(-c3ccoc3)nc2C(F)(F)F)C1)CN1CC(C(F)(F)F)CC1=O (stereo partly drawn) [Ex. 109, 1-{(2S)-2-amino-4-[2-(3-furyl)-4-(trifluoromethyl)-5,8-dihydropyrido[3,4-d]pyrimidin-7(6H)-yl]-4-oxobutyl}-4-(trifluoromethyl)pyrrolidin-2-one] | 55
CC1CCN(C[C@@H](N)CC(=O)N2CCc3c(nc(C(F)(F)F)nc3C(F)(F)F)C2)C(=O)C1 (stereo partly drawn) [Ex. 110, 1-{(2S)-2-amino-4-[2,4-bis(trifluoromethyl)-5,8-dihydropyrido[3,4-d]pyrimidin-7(6H)-yl]-4-oxobutyl}-4-methyloxopiperidin-2-one] | 56
CC1CCN(C[C@@H](N)CC(=O)N2CCc3c(nc(-c4ccoc4)nc3C(F)(F)F)C2)C(=O)C1 (stereo partly drawn) [Ex. 111, 1-{(2S)-2-amino-4-[2-(3-furyl)-4-(trifluoromethyl)-5,8-dihydropyrido[3,4-d]pyrimidin-7(6H)-yl]-4-oxobutyl}-4-methylpiperidin-2-one] | 70
C[C@@H]1CCC(=O)N(C[C@@H](N)CC(=O)N2CCc3c(nc(C4CCC4)nc3C(F)(F)F)C2)C1 [Ex. 112, (5R)-1-{(2S)-2-amino-4-[2-cyclobutyl-4-(trifluoromethyl)-5,8-dihydropyrido[3,4-d]pyrimidin-7(6H)-yl]-4-oxobutyl}-5-methylpiperidin-2-one] | 10
N[C@@H](CC(=O)N1CCc2c(nc(C3CCC3)nc2C(F)(F)F)C1)CN1CC(F)(F)CCC1=O [Ex. 113, 1-{(2S)-2-amino-4-[2-cyclobutyl-4-(trifluoromethyl)-5,8-dihydropyrido[3,4-d]pyrimidin-7(6H)-yl]-4-oxobutyl}-5,5-difluoropiperidin-2-one] | 13
